Reference: the supplement of paper PMC13380429

What was measured:
Conditions in all cases: 72 h
Vero E6 [1] = assay: drug sensitivity score (DSS) for viability; higher = more toxic; extreme values may be limits of the assay
U2OS [2] = assay: as above
HepG2 [3] = assay: as above
Calu-3 [4] = assay: as above
Caco-2 [5] = assay: as above
Vero E6 [6] = assay: relative viability EC50 (midpoint between 100% and the lowest measured viability); higher = less toxic
U2OS [7] = assay: as above
HepG2 [8] = assay: as above
Calu-3 [9] = assay: as above
Caco-2 [10] = assay: as above
Vero E6 [11] = assay: cell viability relative to DMSO; higher = less toxic
U2OS [12] = assay: as above
HepG2 [13] = assay: as above
Calu-3 [14] = assay: as above
Caco-2 [15] = assay: as above

Row | Structure (SMILES) | drug sensitivity score (Vero E6 [1]) | drug sensitivity score (U2OS [2]) | drug sensitivity score (HepG2 [3]) | drug sensitivity score (Calu-3 [4]) | drug sensitivity score (Caco-2 [5]) | relative viability EC50 (Vero E6 [6]) | relative viability EC50 (U2OS [7]) | relative viability EC50 (HepG2 [8]) | relative viability EC50 (Calu-3 [9]) | relative viability EC50 (Caco-2 [10]) | cell viability (Vero E6 [11]; 1 nM) | cell viability (Vero E6 [11]; 10 nM) | cell viability (Vero E6 [11]; 100 nM) | cell viability (Vero E6 [11]; 1000 nM) | cell viability (Vero E6 [11]; 10000 nM) | cell viability (U2OS [12]; 1 nM) | cell viability (U2OS [12]; 10 nM) | cell viability (U2OS [12]; 100 nM) | cell viability (U2OS [12]; 1000 nM) | cell viability (U2OS [12]; 10000 nM) | cell viability (HepG2 [13]; 1 nM) | cell viability (HepG2 [13]; 10 nM) | cell viability (HepG2 [13]; 100 nM) | cell viability (HepG2 [13]; 1000 nM) | cell viability (HepG2 [13]; 10000 nM) | cell viability (Calu-3 [14]; 1 nM) | cell viability (Calu-3 [14]; 10 nM) | cell viability (Calu-3 [14]; 100 nM) | cell viability (Calu-3 [14]; 1000 nM) | cell viability (Calu-3 [14]; 10000 nM) | cell viability (Caco-2 [15]; 1 nM) | cell viability (Caco-2 [15]; 10 nM) | cell viability (Caco-2 [15]; 100 nM) | cell viability (Caco-2 [15]; 1000 nM) | cell viability (Caco-2 [15]; 10000 nM)
1 | CCCN(CCC)CCc1ccc(OC)c(OCCc2ccccc2)c1 [NE-100] | 0 | 0 | 0 | 0 | 0.1 | > 10 µM | > 10 µM | > 10 µM | > 10 µM | > 10 µM | 107% | 106% | 99.3% | 103% | 94.8% | 105% | 100% | 104% | 101% | 97.9% | 101% | 98.5% | 98.6% | 99.3% | 93% | 95.1% | 93.5% | 85.9% | 107% | 105% | 105% | 102% | 89.8% | 92.9% | 91.3%
2 | Cn1cnc2c1c(=O)[nH]c(=O)n2C [theobromine] | 0 | 0 | 0 | 0 | 0 | > 10 µM | > 10 µM | > 10 µM | > 10 µM | > 10 µM | 101% | 92.7% | 103% | 98% | 103% | 92.6% | 101% | 95.7% | 97.6% | 100% | 87.6% | 79.8% | 99.3% | 95.7% | 95.6% | 91.3% | 90.3% | 100% | 97.4% | 98.8% | 99.1% | 110% | 106% | 121% | 104%
3 | Cc1ccc2c(c1CCC(=O)O)CC[C@@H](NS(=O)(=O)c1ccc(Cl)cc1)C2 [terutroban] | 0 | 0 | 0 | 0 | 0 | > 10 µM | > 10 µM | > 10 µM | > 10 µM | > 10 µM | 96.8% | 97.6% | 95.6% | 94.6% | 95.8% | 97.1% | 96.7% | 94.4% | 99.5% | 93.2% | 102% | 90.7% | 95.1% | 103% | 96.3% | 93.2% | 85.6% | 92.8% | 105% | 97.7% | 93% | 97.4% | 100% | 102% | 92.2%
4 | C=CC[C@]1(O)CC[C@H]2[C@@H]3CCC4=CC(=O)CCC4=C3C=C[C@@]21C [altrenogest] | 0 | 0 | 0 | 0 | 0 | > 10 µM | > 10 µM | > 10 µM | > 10 µM | > 10 µM | 97% | 97.5% | 93.2% | 89.5% | 104% | 92.7% | 97.2% | 96.1% | 97.7% | 104% | 107% | 95.9% | 93.6% | 90.2% | 101% | 107% | 88% | 97.6% | 99% | 105% | 102% | 98.1% | 99% | 107% | 96.5%
5 | CC1CNc2c(cccc2S(=O)(=O)N[C@@H](CCCNC(=N)N)C(=O)N2CC[C@@H](C)C[C@@H]2C(=O)O)C1 (mixture of isomers) [argatroban] | 0 | 0 | 0 | 0 | 0 | > 10 µM | > 10 µM | > 10 µM | > 10 µM | > 10 µM | 97.7% | 99.1% | 99.2% | 93.4% | 102% | 98.2% | 104% | 98.9% | 102% | 96.2% | 113% | 93.7% | 96.1% | 87.4% | 97.8% | 91.3% | 97.4% | 98.7% | 93.8% | 94.6% | 96.5% | 97.1% | 86.3% | 105% | 94.3%
6 | N#Cc1cn([C@@H]2O[C@H](CO)[C@@H](O)[C@H]2O)c2ncnc(N)c12 [toyocamycin] | 32.6 | 34.2 | 35.6 | 27.7 | 29.7 | 0.0194 µM | 0.0125 µM | 0.0098 µM | 0.0244 µM | 0.0025 µM | 88.1% | 84.4% | 2.2% | 2.8% | 1.8% | 94.5% | 56.7% | 9.5% | 2.5% | 1% | 89.1% | 50.3% | 8.3% | -0.4% | 0.1% | 93% | 73.8% | 27.8% | 14.5% | 9.8% | 94.4% | 35% | 42.8% | 34.9% | 38.6%
7 | NS(=O)(=O)c1cc2c(cc1C(F)(F)F)NCNS2(=O)=O [hydroflumethiazide] | 0 | 0 | 0 | 0 | 0 | > 10 µM | > 10 µM | > 10 µM | > 10 µM | > 10 µM | 105% | 92.2% | 98.5% | 97.2% | 107% | 102% | 101% | 95.3% | 101% | 98.2% | 104% | 103% | 114% | 99.3% | 96.8% | 97.1% | 101% | 96.7% | 103% | 105% | 99.5% | 99.1% | 89.7% | 98.8% | 92.2%
8 | O=C(COP(=O)(O)O)[C@@H](O)[C@H](O)[C@H](O)COP(=O)(O)O [fosfructose] | 0 | 0 | 0 | 0 | 0 | > 10 µM | > 10 µM | > 10 µM | > 10 µM | > 10 µM | 97.6% | 98.1% | 102% | 102% | 94.7% | 97.9% | 106% | 106% | 105% | 99.3% | 108% | 83% | 73.1% | 99.1% | 95.4% | 101% | 101% | 99.9% | 98.8% | 97.2% | 107% | 118% | 91.9% | 94.7% | 93.5%
9 | Cc1cc(O)c(C(C)C)cc1Cl [chlorothymol] | 0 | 0 | 0 | 0 | 0 | > 10 µM | > 10 µM | > 10 µM | > 10 µM | > 10 µM | 96.9% | 96.9% | 93.7% | 100% | 109% | 99.5% | 97.9% | 104% | 95.9% | 102% | 89.8% | 90.1% | 92.9% | 98.7% | 104% | 100% | 83.8% | 101% | 93.5% | 91.9% | 95.6% | 90.3% | 95.8% | 101% | 99.6%
10 | C[C@H](CCC(=O)NCCS(=O)(=O)O)[C@H]1CC[C@H]2[C@@H]3[C@@H](O)C[C@@H]4C[C@H](O)CC[C@]4(C)[C@H]3CC[C@]12C [ursodeoxycholyltaurine] | 0 | 0 | 0 | 0 | 0 | > 10 µM | > 10 µM | > 10 µM | > 10 µM | > 10 µM | 105% | 110% | 100% | 101% | 97.2% | 97.8% | 97.4% | 98.9% | 97.2% | 98.4% | 94.5% | 96.7% | 85.1% | 97.7% | 96.8% | 106% | 93.9% | 100% | 104% | 97% | 103% | 94.9% | 87.4% | 91.8% | 108%
11 | CC(C)c1ccc(CC(=O)N2CCC[C@@H](c3cccc(OC(C)(C)C(=O)O)c3)C2)cc1 | 0 | 0 | 0 | 0 | 0 | > 10 µM | > 10 µM | > 10 µM | > 10 µM | > 10 µM | 106% | 103% | 101% | 97.4% | 96.8% | 103% | 99.5% | 99.7% | 99.6% | 103% | 98.3% | 106% | 104% | 106% | 108% | 87.3% | 94.5% | 104% | 108% | 98.6% | 92.6% | 100% | 93.2% | 97.6% | 96.2%
